Reference: patent US6872852B2, “Polyamine analogues as cytotoxic agents” (MediQuest Therapeutics, Inc., priority 2000, dated 2005)

Key:
MDA-MB-231 cells [1] = assay: Cytotoxicity, MTS assay after 3 days; assay type: cell-based, human; conditions: for IC50: 3 days incubation, MTS, determined by the inventors, read-out: IC50 against MDA cells
Experimental: After a total of 3-days, cell growth was evaluated by MTS assay (Promega).

SK-MEL-5 cells = assay: Cytotoxicity, MTS assay after 3 days; assay type: cell-based; conditions: 3 days incubation, read-out: IC50 against SK-MEL-5 cells
Experimental: Briefly, cells were plated at 1500 (SK-MEL-5) or 5000 (MDA) cells/well in a 96-well plate and allowed to adhere for 1 day. The indicated analogues were added and the cells were incubated for 3 days, when cell growth was evaluated by MTS assay (Promega). Vertical axis represents cell number as a % of no drug treatment controls. Additionally, significant activity was seen against PC-3 cells (see FIGS. 4 and 11).

PC-3 cells [2] = assay: Cytotoxicity / cell growth, MTS assay; assay type: cell-based, human; conditions: for inhibition of growth of PC-3 cells: 3 days; for IC50: determined by the present inventors
Experimental: Involvement of the pro-apoptotic caspase-3 enzyme in the action of OR 1313 is shown by the experiment represented in FIG. 10. Briefly, PC-3 cells were plated at 1000 cells/well in a 96-well plate and allowed to adhere for 1 day. 10 μM of ORI 1313 and 0, 5, or 15 μM Z-DEVD-fmk, a caspase inhibitor, were added and the cells were incubated for 3 days. Cell growth was evaluated by MTS assay (Promega). Vertical axis represents cell number as a % of no drug treatment controls.

MDA cells = assay: NCI 60-cell line screen; assay type: cell-based, human; conditions: determined by NCI
Experimental: (§1) ORI 1313 and ORI 1327 were evaluated by the National Cancer Institute (NCI) with a 60-cell line screen.

PC-3 cells [3] = assay: NCI 60-cell line screen; assay type: cell-based, human; conditions: determined by NCI
Experimental: as §1

melanoma cell lines = assay: NCI 60-cell line screen; assay type: cell-based; conditions: 8 melanoma lines
Experimental: as §1

MDA-MB-231 cells [4] = assay: Cell cycle analysis by FACS (propidium iodide), apoptotic fraction; assay type: cell-based, human
Experimental: Cell cycle analysis was performed using fluorescent activated cell sorter (FACS) analysis on polyamine analogue treated MDA cells (see FIGS. 7A-7C). Briefly, MDA-MB-231 cells were grown in the presence of ORI 1313 or ORI 1327 for various times then fixed with ethanol and stained with propidium iodide. Cells were analyzed by FACS, with the areas on the histograms designating DNA content and cell cycle stage: M1, G1; M2, S; M3, G2/M; M4, <2N (apoptotic cells).

[5] = system: MES-SA/Dx5 uterine sarcoma cell line; assay: Growth inhibition of multi-drug resistant cells, MTS assay; assay type: cell-based, human; conditions: inferred from parent vs MDR-1 expressing line
Experimental: An unexpected observation made during the cellular characterization of ORI 1313 and ORI 1327 was their growth inhibitory activity against the multi-drug resistant (MDR) uterine sarcoma cell line, MES-SA/Dx5 (see FIGS. 8A and 8B). Briefly, cells were plated at 1000 cells/well in a 96-well plate and allowed to adhere for 1 day. The indicated analogue was added and the cells were incubated for 3 days when cell growth was evaluated by MTS assay (Promega). Vertical axis represents cell number as a % of no drug treatment controls
The MES-SA/Dx5 cell line was developed by selection on doxorubicin and over-expresses the mRNA of the multi-drug resistance gene (MDR-1). The cells are thus much less sensitive to drugs exported via P-glycoprotein (P-gp). See Harker, W. G. et al. Multi-drug (pleiotropic) resistance in doxorubicin-selected variants of the human sarcoma cell line MES-SA. Cancer Research, 1985, 45, 4091-4096. […] This will be particularly advantageous in situations involving target cells expressing MDR-1.

[6] = system: cellular polyamine levels; assay: Intracellular polyamine levels by HPLC; assay type: cell-based; conditions: 11 hr treatment
Experimental: To determine the effects of treatment with polyamine analogues on cellular polyamine levels, intracellular polyamine levels were measured by high performance liquid chromatography (HPLC) after 11 hr treatment with ORI 1313 (32 μM) or ORI 1327 (3 μM). […] This observation is consistent with the previous observations in the field.

cell growth = assay: Co-treatment experiments on analogue cytotoxicity; assay type: cell-based; conditions: for effect of co-treatment with DFMO on results: 1 mM DFMO; for effect of co-treatment with putrescine on cytotoxic effects: 50-fold excess concentration of putrescine; for effect of co-treatment with ORI 1202 on inhibition of cell growth: polyamine transport inhibitor ORI 1202
[7] = system: putrescine uptake into MDA cells; assay: Inhibition of 3H-putrescine uptake; assay type: cell-based, human; conditions: read-out: Kiapp versus putrescine uptake into MDA cells
[8] = system: putrescine uptake into PC-3 cells; assay: Inhibition of 3H-putrescine uptake; assay type: cell-based, human; conditions: read-out: Kiapp versus putrescine uptake into PC-3 cells
[9] = system: A375 human melanoma xenografts; assay: A375 human melanoma xenograft in nude mice; assay type: in vivo
Experimental: ORI was tested in a melanoma tumor xenograft tumor models in BALB/c nude mice. […] The xenograft efficacy study would be performed with two drug concentrations. There were four groups of 10 mice. Treatment groups received the maximum tolerated dose (MTD) or ½ MTD of each analogue. […] A positive control group treated with dacarbazine DTIC (dosage of 180 mg/kg i.p. once per day for 5 days) was used to validate this tumor model system.
Female BALB/c nu/nu athymic mice weighing 20 grams were the animal host for the human xenografts. The method of administration was i.p. injections with 9 mM or 4 mM ORI 1313 once daily for the duration of the study (end point when control tumors reached 2000 mg). […] DITC was administered by i.p. injection once daily for 5 days. Treatment started when the tumors reach 5 mm×5 mm size (50 mg). The mouse weight and tumor size were measured twice weekly. The tumor measurements by calipers were then converted to mg tumor volume by the formula L^2×W/2. Once the control tumors reached 2000 mg both the control and treatment group mice were weighed, sacrificed and the tumors removed. The actual weights of tumors were then used to calculate the percent growth inhibition by each analogue using the formula: % growth inhibition=(mean treated tumor weight/mean control tumor weight×100)−100.

[10] = system: A375 human melanoma cell line; assay: Cytotoxicity against A375 cell line; assay type: cell-based
BALB/c mice [11] = conditions: mouse, in vivo, ip
Experimental: (§2) Chronic toxicities were evaluated by giving i.p. injections once daily for 5 consecutive days.

BALB/c mice [12] = conditions: mouse, in vivo, ip; remark: listed apart in the source
Experimental: as §2

BALB/c mice [13] = assay: Acute toxicity, single i.p. injection
Experimental: as §2

BALB/c mice [14] = assay: Chronic toxicity, i.p. once daily for 5 consecutive days
Experimental: as §2

[15] = system: [1,4-14C]-putrescine uptake; conditions: Frydman et al.; cited from earlier work
[16] = system: putrescine uptake into MDA cells; conditions: read-out: Km for uptake into MDA cells; previously shown; cited from earlier work

Row | SMILES | IC50 (MDA-MB-231 cells [1]) | IC50 (SK-MEL-5 cells) | increase over N1,N4-dibenzylputrescine in potency of cytotoxic activity against MDA cells (MDA-MB-231 cells [1]) | IC50 (PC-3 cells [2]) | IC50 (MDA cells) | IC50 (PC-3 cells [3]) | substrate for the P-gp multi-drug exporter [5] | effect of co-treatment with DFMO on results (cell growth) | effect of co-treatment with putrescine on cytotoxic effects (cell growth) | effect of co-treatment with ORI 1202 on inhibition of cell growth (cell growth) | Ki [8] | tolerated dose, acute (BALB/c mice [11]) | approximate maximum tolerated dosage (BALB/c mice [12]) | tolerated dose, chronic (BALB/c mice [12]) | dose that caused death, acute (BALB/c mice [13]) | lethal dosage, chronic (BALB/c mice [14]) | also measured
1 | c1ccc(CNCCCNCc2ccccc2)cc1 [N^1, N^3-dibenzyl analog of 1,3-diaminopropane, reference compound] | 28.8 µM | – | – | – | – | – | – | – | – | – | – | – | – | – | – | – | –
2 | c1ccc2c(CNCCCCNCc3cccc4ccccc34)cccc2c1 [ORI 1313] | 12 µM | 4.1 µM | 16 fold | 20 µM | 2.3 µM | 11.2 µM | not substrates | did not alter | did not block | did not alter | 24.1 µM | 93 mg/kg | ~40 mg/kg | 40 mg/kg | 186 mg/kg | 80 mg/kg | inhibition of growth of PC-3 cells (PC-3 cells [2]; 10 μM ORI 1313 + 5 μM Z-DEVD-fmk): 19%; inhibition of growth of PC-3 cells (PC-3 cells [2]; 10 μM ORI 1313 + 15 μM Z-DEVD-fmk): 10%; inhibition of growth of PC-3 cells (PC-3 cells [2]; 10 μM ORI 1313 alone): 46%; effectiveness against melanoma cell lines tested (melanoma cell lines): 6 of 8; <2N DNA content (apoptotic fraction) (MDA-MB-231 cells [4]; 32 μM, 11 hr treatment): 21%; <2N DNA content (apoptotic fraction) (MDA-MB-231 cells [4]; 32 μM, 24 hr treatment): 49%; <2N DNA content (apoptotic fraction) (MDA-MB-231 cells [4]; 32 μM, 48 hr treatment): 30%; effect on cellular polyamine levels ([6]; 32 μM): no significant effects; Ki [7]: 28.3 µM; adverse findings in xenograft study ([9]; after 7 weeks of treatment): transient skin ulceration and weight loss; tumor growth inhibition ([9]; at 25 days, vs 5% dextrose control, i.p. once daily): 36%; tolerability in xenograft study ([9]; i.p. once daily, nude mice): well tolerated up to 7 weeks; tumor growth delay ([9]; vs 5% dextrose control, i.p. once daily): 6.2 days; IC50 [10]: 4.1 µM; solubility (dihydrochloride salt, in 5% DMSO): at least 40 mM
3 | c1ccc(N(c2ccccc2)c2ccc(CNCCCCNCc3ccc(N(c4ccccc4)c4ccccc4)cc3)cc2)cc1 [ORI 1327] | 0.65 µM | 0.71 µM | 295 fold | 0.65 µM | 0.005 µM | 0.81 µM | not substrates | did not alter | did not block | did not alter | 14.3 µM | 37 mg/kg | ~7.5 mg/kg | 7.5 mg/kg | 75 mg/kg | 30 mg/kg | <2N DNA content (apoptotic fraction) (MDA-MB-231 cells [4]; 3 μM, 11 hr treatment): 15%; effect on cellular polyamine levels ([6]; 3 μM): no significant effects; solubility relative to lactate salt (dihydrochloride salt): less soluble; solution concentration produced (hydroxypropyl-β-cyclodextrin, 45% w/v HβC in H2O): 40 mM; maximum solubility (lactate salt, aqueous): 5000 µM
4 | NCCCCN [Putrescine, 1,4-diaminobutane] | – | – | – | – | – | – | – | – | – | – | – | – | – | – | – | – | Kmapp, putrescine uptake [15]: 5.2 ± 0.6 µM; Km [16]: 12.4 µM
